Consider six molecules from patent US6071899A, “Azetidinone derivatives for the treatment of atherosclerosis” (SmithKline Beecham p.l.c., priority 1994, dated 2000).

Experiment [1] relates to lyso-PtdCho formation in human LDL. The experiment can be described thus: Inhibition of Cu2+ stimulated lyso-phosphatidylcholine (lyso-PtdCho) formation. The format is biochemical. To be noted: 5 μM Cu2+. The method, then: 2. Inhibition of Cu 2+stimulated lyso-phosphatidylcholine (lyso-PtdCho) formation.
A 1 ml aliquot of human LDL (0.25 mg protein/ml) was incubated for 15 min at 37° C. with compound or vehicle. 5 μM Cu^2+ was then added to allow oxidation/lyso-PtdCho formation to occur. The incubation was terminated by the addition of 3.75 ml chloroform/methanol/c HCl (200:400:5,v/v/v). Following the addition of 1.25 ml chloroform and 1.25 ml 0.1M HCl, the mixture was vortexed and centrifuged. The lower phase was carefully removed and the upper phase re-extracted with an equal volume of synthetic lower phase. The extracts were pooled and dried under nitrogen.
Phospholipids were reconstituted into 50 μl chloroform/methanol (2:1 v/v). 10 μl aliquots were spotted on to pre-run silica gel HPTLC plates and then developed in chloroform/methanol 25-30% methylamine (60:20:5 v/v/v). Plates were subsequently sprayed with the flourescent indicator, 2-p-toluidinylnaphthalene-6-sulphonic acid (1 mM in 50 mM Tris/HCl, pH 7.4) to identify phospholipid components. Fluorescence was measured at 222 nm using a CAMAG TLC scanner. Lipoprotein lyso-PtdCho content was quantified using a standard curve (0.05-0.5 μg) prepared in parallel.

For another experiment, the target named is T1, Lp-PLA2 (Homo sapiens, UniProt Q13093).
T1 construct: Lp-PLA2 was partially purified by density gradient centrifugation of human plasma; from tissue; host or cells: human plasma (pooled active fractions, partially purified)
T1 sequence (Q13093 22-441): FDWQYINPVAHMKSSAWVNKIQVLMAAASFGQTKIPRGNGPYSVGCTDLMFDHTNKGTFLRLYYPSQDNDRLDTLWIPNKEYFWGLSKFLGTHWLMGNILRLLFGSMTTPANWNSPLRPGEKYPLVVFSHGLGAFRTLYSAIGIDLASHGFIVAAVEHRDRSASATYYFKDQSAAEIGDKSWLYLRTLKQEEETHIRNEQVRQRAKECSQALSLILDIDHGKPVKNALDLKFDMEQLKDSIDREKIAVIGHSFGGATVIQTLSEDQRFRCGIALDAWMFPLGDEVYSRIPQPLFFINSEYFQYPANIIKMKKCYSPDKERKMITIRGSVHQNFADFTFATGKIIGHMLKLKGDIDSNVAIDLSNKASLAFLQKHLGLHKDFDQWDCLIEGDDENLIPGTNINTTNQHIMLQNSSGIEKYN
The experiment can be described thus: Screen for Lp-PLA2 inhibition. To be noted: artificial substrate (A) 20 μM, 37° C., pH 7.4, 10 min pre-incubation, 405 nm; enzyme partially purified from human plasma. Type of experiment: biochemical. How it is done:
1. Screen for Lp-PLA2 inhibition.
Enzyme activity was determined by measuring the rate of turnover of the artificial substrate (A) at 37° C. in 50 mM HEPES (N-2-hydroxyethylpiperazine-N'-2-ethanesulphonic acid) buffer containing 150 mM NaCl, pH 7.4. [drawing 7] Assays were performed in 96 well titre plates.
Lp-PLA2 was partially purified by density gradient centrifugation of human plasma. Active fractions were pooled and used as the source of Lp-PLA2. The enzyme was pre-incubated at 37° C. with vehicle or test compound for 10 min in a total volume of 180 μl. The reaction was then initiated by the addition of 20 μl 10× substrate (A) to give a final substrate concentration of 20 μM. The reaction was followed at 405 nm for 20 minutes using a plate reader with automatic mixing. The rate of reaction was measured as the rate of change of absorbance.

Broadly, the IC50 is the midpoint of a concentration-inhibition curve. On to `C[C@@H]1C(=O)N(CC(=O)NCCCCCCc2ccccc2)[C@H]1[S+](C)[O-]` (relative stereo) [Example 71, trans-N-(6-phenylhexyl)-(3-methyl-4-methylsulphinyl-2-oxoazetidin-1-yl)acetamide], for which the IC50 in experiment [1] (human LDL 0.25 mg protein/ml, 15 min pre-incubation at 37° C., read-out: IC50 (inhibition of LDL lyso-PtdCho accumulation stimulated by copper ions)) is around 60 nM; at Lp-PLA2 it was 30 to 400 nM. Further, in experiment [1] (human LDL), the “inhibition of LDL lyso-PtdCho accumulation stimulated by copper ions (in words)” value is listed as “dose dependently inhibits”.
Take `CCCCCC[S+]([O-])C1CC(=O)N1CC(=O)CCc1ccccc1` (single isomer, unassigned) [Example 24, 4-Hexylsulfinyl-1-(4-phenyl-2-oxobutyl)azetidin-2-one]: at Lp-PLA2, the 50% inhibitory concentration (IC50) lay in the range of 30 to 400 nM.
On to `CCCCCC[S+]([O-])C1CC(=O)N1CC(=O)NCCCCCCc1ccccc1` (single isomer, unassigned) [Example 79, N-(6-Phenylhexyl)-(4-n-hexylsulfinyl-2-oxoazetidin-1-yl)acetamide], for which, at Lp-PLA2, the half-inhibitory concentration (IC50) fell in the range of 30 to 400 nM.
`CCCC[S+]([O-])C1CC(=O)N1CC(=O)CCc1ccccc1` (centres unmarked) [Example 18, 4-Butylsulfinyl-1-(4-phenyl-2-oxobutyl)azetidin-2-one]: the IC50 against Lp-PLA2 was 30 to 400 nM.
Still for that read-out and setting: to `C[S+]([O-])C1CC(=O)N1CC(=O)NCCCCCCc1ccccc1` (centres unmarked) [Example 63, N-6-Phenylbexyl-(4-methylsulphinyl-2-oxoazetidin-1-yl)acetamide] belongs 30 to 400 nM; to `C[S+]([O-])C1CC(=O)N1CCCCc1ccccc1` (centres unmarked) [Example 84, 4-Methylsulfinyl-1-(4-phenylbutyl)-azetidin-2-one], 30 to 400 nM.
